Measured values taken from ChEMBL document CHEMBL1154418 (2007).
≈ marks a conversion by molar mass, not a printed value. Calls of active or inactive are those of the source. No cut-off for these calls is given here.

Tests used:
[1] = tested on: Escherichia coli; assay: Antibacterial activity against tetracycline-resistant Escherichia coli clinical isolates expressing tet(A), tet(B) gene by broth microdilution method; format: functional
[2] = tested on: Escherichia coli; assay: Antibacterial activity against tetracycline-resistant Escherichia coli clinical isolates expressing tet(A), tet(B), tet(D), tet(E) gene by broth microdilution method; format: functional, organism-based
[3] = tested on: Escherichia coli; assay: Antibacterial activity against tetracycline-resistant Escherichia coli clinical isolates by broth microdilution method; format: functional
[4] = tested on: Escherichia coli; assay: Antibacterial activity against tetracycline-resistant Escherichia coli clinical isolates expressing tet(M) gene by broth microdilution method; format: functional, organism-based
[5] = tested on: Escherichia coli; assay: Antibacterial activity against tetracycline-resistant Escherichia coli clinical isolates expressing tet(A), tet(E) gene by broth microdilution method; format: functional, organism-based
[6] = tested on: Escherichia coli; assay: Antibacterial activity against tetracycline-resistant Escherichia coli clinical isolates expressing tet(B), tet(D) gene by broth microdilution method; format: functional
[7] = tested on: Escherichia coli; assay: Antibacterial activity against tetracycline-resistant Escherichia coli clinical isolates expressing tet(B) gene by broth microdilution method; format: functional
[8] = tested on: Escherichia coli; assay: Antibacterial activity against tetracycline-resistant Escherichia coli clinical isolates expressing tet(C), tet(E) gene by broth microdilution method; format: functional, organism-based
[9] = tested on: Escherichia coli; assay: Antibacterial activity against tetracycline-resistant Escherichia coli clinical isolates expressing tet(C) gene by broth microdilution method; format: functional, organism-based
[10] = tested on: Escherichia coli; assay: Antibacterial activity against tetracycline-resistant Escherichia coli clinical isolates expressing tet(E) gene by broth microdilution method; format: functional, organism-based
[11] = tested on: Escherichia coli; assay: Antibacterial activity against tetracycline-resistant Escherichia coli clinical isolates expressing tet(D) gene by broth microdilution method; format: functional
[12] = tested on: Escherichia coli; assay: Antibacterial activity against tetracycline-susceptible Escherichia coli clinical isolates by broth microdilution method; format: functional
[13] = tested on: Escherichia coli; assay: Antibacterial activity against tetracycline-resistant Escherichia coli clinical isolates expressing tet(B), tet(C) gene by broth microdilution method; format: functional, organism-based
[14] = tested on: Escherichia coli; assay: Antibacterial activity against tetracycline-resistant Escherichia coli clinical isolates expressing tet(A) gene by broth microdilution method; format: functional
[15] = tested on: Escherichia coli; assay: Antibacterial activity against tetracycline-resistant Escherichia coli clinical isolates expressing tet(A), tet(D) gene by broth microdilution method; format: functional
[16] = tested on: Escherichia coli; assay: Antibacterial activity against Escherichia coli ATCC 25922 by broth microdilution method; format: functional, organism-based
[17] = tested on: Escherichia coli; assay: Antibacterial activity against tetracycline-resistant Escherichia coli clinical isolates expressing tet(A), tet(M) gene by broth microdilution method; format: functional, organism-based
[18] = tested on: Escherichia coli; assay: Antibacterial activity against tetracycline-resistant Escherichia coli clinical isolates expressing tet(B), tet(D), tet(E) gene by broth microdilution method; format: functional, organism-based
[19] = tested on: Escherichia coli; assay: Antibacterial activity against tetracycline-resistant Escherichia coli clinical isolates expressing tet(B), tet(E) gene by broth microdilution method; format: functional
[20] = tested on: Escherichia coli; assay: Antibacterial activity against tetracycline-resistant Escherichia coli clinical isolates expressing tet(D), tet(E) gene by broth microdilution method; format: functional, organism-based
[21] = tested on: Escherichia coli; assay: Antibacterial activity against tetracycline-resistant Escherichia coli with multiple drug resistance determinant isolates by broth microdilution method; format: functional
[22] = tested on: Escherichia coli; assay: Antibacterial activity against tetracycline-resistant Escherichia coli with single drug resistance determinant isolates by broth microdilution method; format: functional
[23] = tested on: Escherichia coli; assay: Antibacterial activity against tetracycline-resistant Escherichia coli clinical isolates expressing tet(A), tet(B), tet(D) gene by broth microdilution method; format: functional, organism-based
[24] = tested on: Escherichia coli; assay: Antibacterial activity against tetracycline-resistant Escherichia coli clinical isolates without tet(B) gene by broth microdilution method; format: functional

Compound	MIC50 [1]	MIC90 [1]	Activity [2]	MIC50 [3]	MIC90 [3]	Activity [4]	Activity [5]	MIC50 [6]	MIC90 [6]	MIC50 [7]	MIC90 [7]	Activity [8]	Activity [9]	Activity [10]	MIC50 [11]	MIC90 [11]	MIC90 [12]	Activity [13]	MIC50 [14]	MIC90 [14]	other results
CN(C)c1ccc(O)c2c1C[C@H]1C[C@H]3[C@H](N(C)C)C(O)=C(C(N)=O)C(=O)[C@@]3(O)C(O)=C1C2=O [MINOCYCLINE]	16 µg/mL (≈ 35 µM)	32 µg/mL (≈ 69.9 µM)	inactive	4 µg/mL (≈ 8.74 µM)	8 µg/mL (≈ 17.5 µM)	inactive	inactive	16 µg/mL (≈ 35 µM)	64 µg/mL (≈ 140 µM)	16 µg/mL (≈ 35 µM)	32 µg/mL (≈ 69.9 µM)	inactive	inactive	inactive	8 µg/mL (≈ 17.5 µM)	8 µg/mL (≈ 17.5 µM)	2 µg/mL (≈ 4.37 µM)	inactive	2 µg/mL (≈ 4.37 µM)	4 µg/mL (≈ 8.74 µM)	MIC50 [12]: 1 µg/mL (≈ 2.19 µM); MIC50 [15]: 4 µg/mL (≈ 8.74 µM); MIC90 [15]: 16 µg/mL (≈ 35 µM); Activity [16]: inactive; Activity [17]: inactive; Activity [18]: inactive; MIC50 [19]: 8 µg/mL (≈ 17.5 µM); MIC90 [19]: 32 µg/mL (≈ 69.9 µM); Activity [20]: inactive; MIC50 [21]: 8 µg/mL (≈ 17.5 µM); MIC90 [21]: 32 µg/mL (≈ 69.9 µM); MIC50 [22]: 8 µg/mL (≈ 17.5 µM); MIC90 [22]: 32 µg/mL (≈ 69.9 µM); Activity [23]: inactive; MIC50 [24]: 4 µg/mL (≈ 8.74 µM); MIC90 [24]: 8 µg/mL (≈ 17.5 µM)
CN(C)[C@@H]1C(O)=C(C(N)=O)C(=O)[C@@]2(O)C(O)=C3C(=O)c4c(O)cccc4[C@@](C)(O)[C@H]3C[C@@H]12 [TETRACYCLINE]	> 64 µg/mL	> 64 µg/mL	inactive	> 64 µg/mL	> 64 µg/mL	inactive	inactive	> 64 µg/mL	> 64 µg/mL	> 64 µg/mL	> 64 µg/mL	inactive	inactive	inactive	> 64 µg/mL	> 64 µg/mL	4 µg/mL (≈ 9 µM)	inactive	> 64 µg/mL	64 µg/mL (≈ 144 µM)	MIC50 [15]: > 64 µg/mL; MIC90 [15]: > 64 µg/mL; Activity [17]: inactive; Activity [18]: inactive; MIC50 [19]: > 64 µg/mL; MIC90 [19]: > 64 µg/mL; Activity [20]: inactive; MIC50 [21]: > 64 µg/mL; MIC90 [21]: > 64 µg/mL; MIC50 [22]: > 64 µg/mL; MIC90 [22]: > 64 µg/mL; Activity [23]: inactive; MIC50 [24]: > 64 µg/mL; MIC90 [24]: > 64 µg/mL
CN(C)c1cc(NC(=O)CNC(C)(C)C)c(O)c2c1C[C@H]1C[C@H]3[C@H](N(C)C)C(O)=C(C(N)=O)C(=O)[C@@]3(O)C(O)=C1C2=O [TIGECYCLINE]	0.25 µg/mL (≈ 0.427 µM)	0.5 µg/mL (≈ 0.854 µM)	inactive	0.5 µg/mL (≈ 0.854 µM)	1 µg/mL (≈ 1.71 µM)	inactive	inactive	0.25 µg/mL (≈ 0.427 µM)	0.5 µg/mL (≈ 0.854 µM)	0.25 µg/mL (≈ 0.427 µM)	0.5 µg/mL (≈ 0.854 µM)	inactive	inactive	inactive	0.25 µg/mL (≈ 0.427 µM)	0.5 µg/mL (≈ 0.854 µM)	0.5 µg/mL (≈ 0.854 µM)	inactive	0.5 µg/mL (≈ 0.854 µM)	0.5 µg/mL (≈ 0.854 µM)	MIC50 [12]: 0.25 µg/mL (≈ 0.427 µM); MIC50 [15]: 0.5 µg/mL (≈ 0.854 µM); MIC90 [15]: 1 µg/mL (≈ 1.71 µM); Activity [16]: inactive; Activity [17]: inactive; Activity [18]: inactive; MIC50 [19]: 0.25 µg/mL (≈ 0.427 µM); MIC90 [19]: 0.25 µg/mL (≈ 0.427 µM); Activity [20]: inactive; MIC50 [21]: 0.25 µg/mL (≈ 0.427 µM); MIC90 [21]: 0.5 µg/mL (≈ 0.854 µM); MIC50 [22]: 0.25 µg/mL (≈ 0.427 µM); MIC90 [22]: 0.5 µg/mL (≈ 0.854 µM); Activity [23]: inactive; MIC50 [24]: 0.5 µg/mL (≈ 0.854 µM); MIC90 [24]: 0.5 µg/mL (≈ 0.854 µM)
